Assay results from US10131652B2, “Pyrimidinyloxy benzene derivatives as herbicides” (E. I. DU PONT DE NEMOURS AND COMPANY, priority 2014, dated 2018).
Where two headings read alike, the source gives them in different places.

Experiments:
Assay in all cases: Test B pre-/postemergence plant response
Type in all cases: in vivo
corn (Zea mays) = conditions: for Plant response rating, Corn: 1000 g ai/ha; for Corn plant response rating (crop injury, 0 = no effect, 100 = complete kill) at 125 g/ha: 125 g ai/ha
From the text: (§1) Seeds of plant species selected from bamyardgrass (Echinochloa crus-galli), kochia (Kochia scoparia), ragweed (common ragweed, Ambrosia elatior), Italian ryegrass (Lolium multiflorum), large (Lg) crabgrass (Digitaria sanguinalis), giant foxtail (Setaria faberii), momingglory (Ipomoea spp.), pigweed (Amaranthus retroflexus), velvetleaf (Abutilon theophrasti), wheat (Triticum aestivum), and corn (Zea mays) were planted into a blend of loam soil and sand and treated preemergence with a directed soil spray using test chemicals formulated in a non-phytotoxic solvent mixture which included a surfactant. At the same time, plants selected from these crop and weed species and also blackgrass (Alopecurus myosuroides), and galium (catchweed bedstraw, Galium aparine) were planted in pots containing the same blend of loam soil and sand and treated with postemergence applications of test chemicals formulated in the same manner. Plants ranged in height from 2 to 10 cm and were in the one- to two-leaf stage for the postemergence treatment. Treated plants and untreated controls were maintained in a greenhouse for approximately 10 days, after which time all treated plants were compared to untreated controls and visually evaluated for injury. Plant response ratings, summarized in Table B, are based on a 0 to 100 scale where 0 is no effect and 100 is complete control. A dash (-) response means no test result.

[1] = system: barnyardgrass (Echinochloa crus-galli); conditions: for Plant response rating, Barnyardgrass: 1000 g ai/ha; for pest or weed control at 125 g/ha: 125 g ai/ha
From the text: as §1

[2] = system: velvetleaf (Abutilon theophrasti); conditions: for Plant response rating, Velvetleaf: 1000 g ai/ha; for pest or weed control at 125 g/ha: 125 g ai/ha
From the text: as §1

[3] = system: wheat (Triticum aestivum); conditions: for Plant response rating, Wheat: 1000 g ai/ha, 0 to 100 scale (0 no effect, 100 complete control); for plant injury at 125 g/ha: 125 g ai/ha
From the text: as §1

[4] = system: giant foxtail (Setaria faberii); conditions: for Plant response rating, Foxtail, Giant: 1000 g ai/ha; for pest or weed control at 125 g/ha: 125 g ai/ha
From the text: as §1

[5] = system: morningglory (Ipomoea spp.); conditions: for Plant response rating, Morningglory: 1000 g ai/ha; for pest or weed control at 125 g/ha: 125 g ai/ha
From the text: as §1

[6] = system: large (Lg) crabgrass (Digitaria sanguinalis); conditions: for Plant response rating, Crabgrass, Large: 1000 g ai/ha; for pest or weed control at 125 g/ha: 125 g ai/ha
From the text: as §1

[7] = system: pigweed (Amaranthus retroflexus); conditions: for Plant response rating, Pigweed: 1000 g ai/ha; for pest or weed control at 125 g/ha: 125 g ai/ha
From the text: as §1

[8] = Postemergence, 0 to 100 scale (0 no effect, 100 complete control)
[9] = Preemergence, 0 to 100 scale (0 no effect, 100 complete control)
[10] = Preemergence, 31 g ai/ha, 0 to 100 scale (0 no effect, 100 complete control)

## Clc1cnc(Oc2ccccc2-c2cnco2)nc1 [Compound 7]
Corn (Zea mays); [8]
  Plant response rating, Corn: 10
Corn (Zea mays); [9]
  Plant response rating, Corn: 0
[1]; [8]
  Plant response rating, Barnyardgrass: 10
[1]; [9]
  Plant response rating, Barnyardgrass: 10
[2]; [8]
  Plant response rating, Velvetleaf: 10
[2]; [9]
  Plant response rating, Velvetleaf: 10
[3]; Postemergence
  Plant response rating, Wheat: 10
[3]; Preemergence
  Plant response rating, Wheat: 0
[4]; [8]
  Plant response rating, Foxtail, Giant: 20
[4]; [9]
  Plant response rating, Foxtail, Giant: 20
[5]; [8]
  Plant response rating, Morningglory: 40
[5]; [9]
  Plant response rating, Morningglory: 0
[6]; [8]
  Plant response rating, Crabgrass, Large: 20
[6]; [9]
  Plant response rating, Crabgrass, Large: 40
[7]; [8]
  Plant response rating, Pigweed: 20
[7]; [9]
  Plant response rating, Pigweed: 40

## Clc1cnc(Oc2ccccc2-c2cscn2)nc1 [Compound 8]
Corn (Zea mays); [8]
  Plant response rating, Corn: 0
Corn (Zea mays); [9]
  Plant response rating, Corn: 0
[1]; [8]
  Plant response rating, Barnyardgrass: 0
[1]; [9]
  Plant response rating, Barnyardgrass: 30
[2]; [8]
  Plant response rating, Velvetleaf: 30
[2]; [9]
  Plant response rating, Velvetleaf: 30
[3]; Postemergence
  Plant response rating, Wheat: 0
[3]; Preemergence
  Plant response rating, Wheat: 0
[4]; [8]
  Plant response rating, Foxtail, Giant: 0
[4]; [9]
  Plant response rating, Foxtail, Giant: 60
[5]; [8]
  Plant response rating, Morningglory: 10
[5]; [9]
  Plant response rating, Morningglory: 0
[6]; [8]
  Plant response rating, Crabgrass, Large: 10
[6]; [9]
  Plant response rating, Crabgrass, Large: 80
[7]; [8]
  Plant response rating, Pigweed: 70
[7]; [9]
  Plant response rating, Pigweed: 100

## Clc1cnc(Oc2ccccc2-c2cncs2)nc1 [Compound 9]
Corn (Zea mays); [8]
  Plant response rating, Corn: 10
Corn (Zea mays); [9]
  Plant response rating, Corn: 0
[1]; [8]
  Plant response rating, Barnyardgrass: 10
[1]; [9]
  Plant response rating, Barnyardgrass: 20
[2]; [8]
  Plant response rating, Velvetleaf: 40
[2]; [9]
  Plant response rating, Velvetleaf: 10
[3]; Postemergence
  Plant response rating, Wheat: 10
[3]; Preemergence
  Plant response rating, Wheat: 0
[4]; [8]
  Plant response rating, Foxtail, Giant: 20
[4]; [9]
  Plant response rating, Foxtail, Giant: 60
[5]; [8]
  Plant response rating, Morningglory: 50
[5]; [9]
  Plant response rating, Morningglory: 0
[6]; [8]
  Plant response rating, Crabgrass, Large: 50
[6]; [9]
  Plant response rating, Crabgrass, Large: 70
[7]; [8]
  Plant response rating, Pigweed: 60
[7]; [9]
  Plant response rating, Pigweed: 90

## FC(F)(F)c1cnc(Oc2ccccc2-c2cnc(Br)s2)nc1 [Compound 15, 2-[2-(2-bromo-5-thiazolyl)phenoxy]-5-(trifluoromethyl)pyrimidine]
Corn (Zea mays); [10]
  Corn plant response rating: 0
Corn (Zea mays); Zea mays, post-emergence, 240 h, 31 g ai/ha, Postemergence, 0 to 100 scale, 0 no effect, 100 complete control
  Corn plant response rating (crop injury, 0 = no effect, 100 = complete kill) at 31 g/ha: 0%
Corn (Zea mays); Zea mays, post-emergence, 240 h, postemergence, 0 to 100 scale, 0 no effect, 100 complete control
  Corn plant response rating (crop injury, 0 = no effect, 100 = complete kill) at 125 g/ha: 0%
Corn (Zea mays); Zea mays, pre-emergence, 240 h, Preemergence, 0 to 100 scale where 0 is no effect and 100 is complete control
  Corn plant response rating (crop injury, 0 = no effect, 100 = complete kill) at 125 g/ha: 0%
[1]; Echinochloa crus-galli, post-emergence, 240 h, 31 g ai/ha, Postemergence, 0 to 100 scale, 0 no effect, 100 complete control, read-out: Plant response rating, Barnyardgrass
  pest or weed control at 31 g/ha: 0%
[1]; Echinochloa crus-galli, post-emergence, 240 h, postemergence, 0 to 100 scale, 0 no effect, 100 complete control, read-out: Plant response rating, Barnyardgrass
  pest or weed control at 125 g/ha: 0%
[1]; Echinochloa crus-galli, pre-emergence, 240 h, Preemergence, 0 to 100 scale where 0 is no effect and 100 is complete control, read-out: Plant response rating, Barnyardgrass
  pest or weed control at 125 g/ha: 0%
[1]; [10]
  Barnyardgrass plant response rating: 0
[2]; Abutilon theophrasti, post-emergence, 240 h, 31 g ai/ha, Postemergence, 0 to 100 scale, 0 no effect, 100 complete control, read-out: Plant response rating, Velvetleaf
  pest or weed control at 31 g/ha: 0%
[2]; Abutilon theophrasti, post-emergence, 240 h, postemergence, 0 to 100 scale, 0 no effect, 100 complete control, read-out: Plant response rating, Velvetleaf
  pest or weed control at 125 g/ha: 0%
[2]; Abutilon theophrasti, pre-emergence, 240 h, Preemergence, 0 to 100 scale where 0 is no effect and 100 is complete control, read-out: Plant response rating, Velvetleaf
  pest or weed control at 125 g/ha: 0%
[2]; [10]
  Velvetleaf plant response rating: 0
[3]; Triticum aestivum, post-emergence, 240 h, 31 g ai/ha, Postemergence, 0 to 100 scale, 0 no effect, 100 complete control, read-out: Plant response rating, Wheat
  plant injury at 31 g/ha: 0%
[3]; Triticum aestivum, post-emergence, 240 h, postemergence, 0 to 100 scale, 0 no effect, 100 complete control, read-out: Plant response rating, Wheat
  plant injury at 125 g/ha: 0%
[3]; Triticum aestivum, pre-emergence, 240 h, Preemergence, 0 to 100 scale where 0 is no effect and 100 is complete control, read-out: Plant response rating, Wheat
  plant injury at 125 g/ha: 0%
[4]; [10]
  Foxtail, Giant plant response rating: 0
[4]; Setaria faberi, post-emergence, 240 h, 31 g ai/ha, Postemergence, 0 to 100 scale, 0 no effect, 100 complete control, read-out: Plant response rating, Foxtail, Giant
  pest or weed control at 31 g/ha: 0%
[4]; Setaria faberi, post-emergence, 240 h, postemergence, 0 to 100 scale, 0 no effect, 100 complete control, read-out: Plant response rating, Foxtail, Giant
  pest or weed control at 125 g/ha: 0%
[4]; Setaria faberi, pre-emergence, 240 h, Preemergence, 0 to 100 scale where 0 is no effect and 100 is complete control, read-out: Plant response rating, Foxtail, Giant
  pest or weed control at 125 g/ha: 0%
[5]; Ipomoea, post-emergence, 240 h, 31 g ai/ha, Postemergence, 0 to 100 scale, 0 no effect, 100 complete control, read-out: Plant response rating, Morningglory
  pest or weed control at 31 g/ha: 0%
[5]; Ipomoea, post-emergence, 240 h, postemergence, 0 to 100 scale, 0 no effect, 100 complete control, read-out: Plant response rating, Morningglory
  pest or weed control at 125 g/ha: 10%
[5]; Ipomoea, pre-emergence, 240 h, Preemergence, 0 to 100 scale where 0 is no effect and 100 is complete control, read-out: Plant response rating, Morningglory
  pest or weed control at 125 g/ha: 0%
[5]; [10]
  Morningglory plant response rating: 0
[6]; Digitaria sanguinalis, post-emergence, 240 h, 31 g ai/ha, Postemergence, 0 to 100 scale, 0 no effect, 100 complete control, read-out: Plant response rating, Crabgrass, Large
  pest or weed control at 31 g/ha: 0%
[6]; Digitaria sanguinalis, post-emergence, 240 h, postemergence, 0 to 100 scale, 0 no effect, 100 complete control, read-out: Plant response rating, Crabgrass, Large
  pest or weed control at 125 g/ha: 10%
[6]; Digitaria sanguinalis, pre-emergence, 240 h, Preemergence, 0 to 100 scale where 0 is no effect and 100 is complete control, read-out: Plant response rating, Crabgrass, Large
  pest or weed control at 125 g/ha: 0%
[6]; [10]
  Crabgrass, Large plant response rating: 0
[7]; Amaranthus retroflexus, post-emergence, 240 h, 31 g ai/ha, Postemergence, 0 to 100 scale, 0 no effect, 100 complete control, read-out: Plant response rating, Pigweed
  pest or weed control at 31 g/ha: 60%
[7]; Amaranthus retroflexus, post-emergence, 240 h, postemergence, 0 to 100 scale, 0 no effect, 100 complete control, read-out: Plant response rating, Pigweed
  pest or weed control at 125 g/ha: 70%
[7]; Amaranthus retroflexus, pre-emergence, 240 h, Preemergence, 0 to 100 scale where 0 is no effect and 100 is complete control, read-out: Plant response rating, Pigweed
  pest or weed control at 125 g/ha: 0%
[7]; [10]
  Pigweed plant response rating: 0
